The target in assay [1] is T1, HCV NS3/4A protease complex, BMS strain (UniProt P27958, C1454S/C1711G, species not given).
T1 construct: other: HCV NS3/4A enzyme assay; class symbols; numeric values; fused on or other part: three-lysine solubilising tail at the C-terminus of NS4A; purified on Ni-NTA from the pET21b vector (His tag implied)
As to the kind of experiment: FRET peptide assay to monitor HCV NS3/4A proteolytic activity (BMS strain). In kind it is biochemical, HCV genotype 1a. To be noted: read-out: IC50 Range; HCV NS3/4A enzyme assay; class symbols. An outline of the steps: (§1)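 Recombinant HCV NS3/4A protease complex (BMS strain, genotype 1a), 2-3 nM final (300 pM with 50 μg/ml BSA for very potent compounds), incubated with RET S1 EDANS/DABCYL depsipeptide substrate at 2 μM final. Buffer: 50 mM HEPES pH 7.5, 0.15 M NaCl, 0.1% Triton, 15% glycerol, 10 mM βME. Cleavage followed in real time by fluorescence.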

For assay [2], the target named is T2, HCV NS3/4A protease complex, BMS strain (UniProt P27958, C1454S/C1711G, species not given/STRAIN_BMS).
T2 construct: other: BMS strain; fused on or other part: three-lysine solubilising tail at the C-terminus of NS4A; purified on Ni-NTA from the pET21b vector (His tag implied)
The assay is described as above. It is filed as biochemical, HCV genotype 1a. To be noted: read-out: IC50 against the NS3/4A BMS strain in the enzyme assay; BMS strain. An outline of the steps: as §1

The target of assay [3] is T3, porcine pancreatic elastase (PPE) (Sus scrofa, UniProt P00772).
T3 construct: purchased Sigma, EMDbiosciences
T3 sequence (P00772 27-266): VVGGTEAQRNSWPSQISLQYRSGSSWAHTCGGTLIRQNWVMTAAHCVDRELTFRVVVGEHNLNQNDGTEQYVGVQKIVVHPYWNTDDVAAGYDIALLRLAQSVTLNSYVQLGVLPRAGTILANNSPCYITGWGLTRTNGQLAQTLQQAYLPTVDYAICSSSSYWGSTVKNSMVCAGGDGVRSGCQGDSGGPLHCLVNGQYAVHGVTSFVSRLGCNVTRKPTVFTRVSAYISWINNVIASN
As to the kind of experiment: Specificity assay, PPE. In kind it is biochemical. The following applies: read-out: PPE activity in the specificity assays. The method, then: The specificities of compounds of the present disclosure were determined against a variety of serine proteases: human neutrophil elastase (HNE), porcine pancreatic elastase (PPE) and human pancreatic chymotrypsin and one cysteine protease: human liver cathepsin B. In all cases a 96-well plate format protocol using a fluorometric Amino-Methyl-Coumarin (AMC) substrate specific for each enzyme was used as described previously (PCT Patent Application No. WO 00/09543) with some modifications to the serine protease assays. All enzymes were purchased from Sigma, EMDbiosciences while the substrates were from Bachem, Sigma and EMDbiosciences.
Compound concentrations varied from 100 to 0.4 μM depending on their potency. The enzyme assays were each initiated by addition of substrate to enzyme-inhibitor pre-incubated for 10 min at room temperature and hydrolysis to 15% conversion as measured on cytofluor.
50 mM Tris-HCl, pH 8.0, 50 mM NaCl, 0.1 mM EDTA, 3% DMSO, 0.02% Tween-20, 5 μM succ-AAPV-AMC and 20 nM HNE or 8 nM PPE;
The percentage of inhibition was calculated using the formula: [1−((UVinh−UVblank)/(UVctl−UVblank))]×100
A non-linear curve fit was applied to the inhibition-concentration data, and the 50% effective concentration (IC50) was calculated by the use of Excel XLfit software.

Structures are written as SMILES.

As to `C=C[C@@H]1C[C@]1(NC(=O)[C@@H]1C[C@@H](Oc2ncc(OC)c3ccc(Cl)cc23)CN1C(=O)[C@@H](Nc1nc(-c2cccc(OC(F)(F)F)c2)cs1)C(C)(C)C)C(=O)NS(=O)(=O)C1CC1` [Example 68], the IC50 is 1 to 20 nM in assay [1], 4 nM in assay [2] and > 50000 nM in assay [3].

For the origin of these results see patent publication US8163921B2, “Hepatitis C virus inhibitors” (Bristol-Myers Squibb Company, priority 2008, dated 2012).
